Data reported in US20250197368A1 (priority 2020, published 2025).
pKi: −log10 of the molar value. Where a name gives a salt, the structure may show the parent alone.

What was measured:
human α2β3γ2 GABAARs = experiment: In vitro electrophysiological recording assay (automated patch-clamp), α2-GABAAR relative efficacy; format: cell-based; conditions: % efficacy normalised to diazepam; GABA EC10-20; concentration generally >= 100 times Ki
How it was run: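 Automated whole-cell patch clamp at 20-22° C on L(tk^−) cells (QPatch, −65 mV) or HEK293 cells (SyncroPatch, −80 mV) stably expressing the human receptor. Compound pre-applied ≥1 min, then co-applied with GABA EC10-20; % potentiation of leak-corrected peak current, normalised to diazepam, typically at ≥100× Ki.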

[1] = biological target: human α2β3γ2 GABAARs (benzodiazepine site) (Homo sapiens (Human), UniProt P18507+P47869); experiment: In vitro radioligand binding assay ([3H]Ro15-1788 displacement), α2-GABAAR Ki
human α2β3γ2 GABAARs (benzodiazepine site), sequence (P47869 29-451): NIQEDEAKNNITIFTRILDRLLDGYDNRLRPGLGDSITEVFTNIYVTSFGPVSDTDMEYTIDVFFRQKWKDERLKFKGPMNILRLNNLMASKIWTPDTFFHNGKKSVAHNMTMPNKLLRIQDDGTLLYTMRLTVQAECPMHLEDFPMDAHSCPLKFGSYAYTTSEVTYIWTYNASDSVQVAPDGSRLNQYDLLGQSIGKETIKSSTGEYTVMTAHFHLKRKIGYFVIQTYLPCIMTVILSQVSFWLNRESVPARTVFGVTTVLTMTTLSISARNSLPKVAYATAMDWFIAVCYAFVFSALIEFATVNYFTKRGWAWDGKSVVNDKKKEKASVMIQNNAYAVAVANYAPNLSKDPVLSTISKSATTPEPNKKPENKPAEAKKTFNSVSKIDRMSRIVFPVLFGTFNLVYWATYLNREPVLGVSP
human α2β3γ2 GABAARs (benzodiazepine site), sequence (P28472 26-473 partner): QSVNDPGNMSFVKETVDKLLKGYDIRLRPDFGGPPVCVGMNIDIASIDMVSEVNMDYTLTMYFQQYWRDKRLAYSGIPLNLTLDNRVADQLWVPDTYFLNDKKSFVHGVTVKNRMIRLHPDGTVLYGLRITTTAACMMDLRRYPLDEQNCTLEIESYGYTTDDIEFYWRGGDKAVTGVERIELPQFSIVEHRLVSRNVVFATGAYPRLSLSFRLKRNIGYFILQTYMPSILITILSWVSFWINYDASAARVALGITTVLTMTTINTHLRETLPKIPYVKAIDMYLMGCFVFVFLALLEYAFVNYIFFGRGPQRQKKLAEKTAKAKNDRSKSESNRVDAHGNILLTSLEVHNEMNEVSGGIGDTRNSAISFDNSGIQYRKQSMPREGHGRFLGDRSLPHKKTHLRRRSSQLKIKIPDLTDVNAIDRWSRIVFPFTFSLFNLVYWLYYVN
human α2β3γ2 GABAARs (benzodiazepine site), sequence (P18507 40-475): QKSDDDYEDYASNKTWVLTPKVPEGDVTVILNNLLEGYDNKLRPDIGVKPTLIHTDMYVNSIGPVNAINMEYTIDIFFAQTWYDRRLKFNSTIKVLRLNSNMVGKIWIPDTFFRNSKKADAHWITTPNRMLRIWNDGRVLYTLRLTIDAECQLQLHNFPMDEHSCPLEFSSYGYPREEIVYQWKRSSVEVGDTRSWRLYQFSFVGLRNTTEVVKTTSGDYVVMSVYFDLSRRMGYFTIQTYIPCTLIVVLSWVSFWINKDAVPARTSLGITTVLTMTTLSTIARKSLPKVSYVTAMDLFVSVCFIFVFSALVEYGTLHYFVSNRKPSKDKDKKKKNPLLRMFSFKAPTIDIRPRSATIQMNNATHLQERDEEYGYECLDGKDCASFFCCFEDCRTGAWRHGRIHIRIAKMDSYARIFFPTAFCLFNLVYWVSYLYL
How it was run: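 Membranes from dexamethasone-induced mouse L(tk−) cells stably expressing the human receptor were incubated 1 h at 4° C with 4 nM [3H]Ro15-1788 and graded compound; nonspecific binding with 1-3 μM TP003. Filter-bound radioactivity counted; Ki from IC50 by Cheng-Prusoff using the measured radioligand Kd.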

Row | SMILES | α2-GABAAR Relative Efficacy (vs. Diazepam) (human α2β3γ2 GABAARs) | pKi [1]
1 | CCCNC(=O)c1c(N)c2cccc(-c3cc(OCc4cc(C#N)ccn4)ccc3F)c2[nH]c1=O [Example 101, 4-Amino-8-[5-[(4-cyano-2-pyridyl)methoxy]-2-fluoro-phenyl]-2-oxo-N-propyl-1H-quinoline-3-carboxamide] | 0.31 | 9.72
2 | CCCNC(=O)c1c(N)c2cccc(-c3cc(OCc4cc(CO)ccn4)ccc3F)c2[nH]c1=O [Example 102, 4-Amino-8-(2-fluoro-5-((4-(hydroxymethyl)pyridin-2-yl)methoxy)phenyl)-2-oxo-N-propyl-1,2-dihydroquinoline-3-carboxamide] | 0.33 | 9.15
3 | CCCNC(=O)c1c(N)c2cccc(-c3cc(OCc4ncccc4C)ccc3F)c2[nH]c1=O [Example 103, 4-Amino-8-[2-fluoro-5-[(3-methyl-2-pyridyl)methoxy]phenyl]-2-oxo-N-propyl-1H-quinoline-3-carboxamide] | 0.37 | 8.77
4 | CCCNC(=O)c1c(N)c2cccc(-c3cc(COc4ccccn4)ncc3F)c2[nH]c1=O [Example 104, 4-Amino-8-(5-fluoro-2-((pyridin-2-yloxy)methyl)pyridin-4-yl)-2-oxo-N-propyl-1,2-dihydroquinoline-3-carboxamide] | 0.27 | 8.68
5 | CCCNC(=O)c1c(N)c2cccc(-c3cc(OCc4cccnn4)ccc3F)c2[nH]c1=O [Example 105, 4-Amino-8-[2-fluoro-5-(pyridazin-3-ylmethoxy)phenyl]-2-oxo-N-propyl-1H-quinoline-3-carboxamide] | 0.19 | 9.68
6 | CCCNC(=O)c1c(N)c2cccc(-c3cc(OCc4ccnnc4)ccc3F)c2[nH]c1=O [Example 106, 4-Amino-8-[2-fluoro-5-(pyridazin-4-ylmethoxy)phenyl]-2-oxo-N-propyl-1H-quinoline-3-carboxamide] | 0.22 | 9.39
7 | CCCNC(=O)c1c(N)c2cccc(-c3cc(OCc4cncnc4)ccc3F)c2[nH]c1=O [Example 107, 4-Amino-8-[2-fluoro-5-(pyrimidin-5-ylmethoxy)phenyl]-2-oxo-N-propyl-1H-quinoline-3-carboxamide] | 0.17 | 9.70
8 | CCCNC(=O)c1c(N)c2cccc(-c3cc(OCc4cccnc4)ccc3F)c2[nH]c1=O [Example 108, 4-Amino-8-[2-fluoro-5-(3-pyridylmethoxy)phenyl]-2-oxo-N-propyl-1H-quinoline-3-carboxamide] | 0.32 | 9.41
9 | CCCNC(=O)c1c(N)c2cccc(-c3cc(OCc4cccnc4C#N)ccc3F)c2[nH]c1=O [Example 109, 4-Amino-8-[5-[(2-cyano-3-pyridyl)methoxy]-2-fluoro-phenyl]-2-oxo-N-propyl-1H-quinoline-3-carboxamide] | 0.21 | 9.77
10 | CCCNC(=O)c1c(N)c2cccc(-c3cc(COc4ccc(C)nc4)ccc3F)c2[nH]c1=O [Example 112, 4-Amino-8-[2-fluoro-5-[(6-methyl-3-pyridyl)oxymethyl]phenyl]-2-oxo-N-propyl-1H-quinoline-3-carboxamide] | 0.11 | 9.24
11 | CCCNC(=O)c1c(N)c2cccc(-c3cc(OCc4ccncc4)ccc3F)c2[nH]c1=O [Example 113, 4-Amino-8-[2-fluoro-5-(4-pyridylmethoxy)phenyl]-2-oxo-N-propyl-1H-quinoline-3-carboxamide] | 0.24 | 9.92
12 | CCCNC(=O)c1c(N)c2cccc(-c3cc(OCc4ccc(F)cc4C#N)ccc3F)c2[nH]c1=O [Example 114, 4-Amino-8-[5-[(2-cyano-4-fluoro-phenyl)methoxy]-2-fluoro-phenyl]-2-oxo-N-propyl-1H-quinoline-3-carboxamide] | 0.38 | 9.14
13 | CCCNC(=O)c1c(N)c2cccc(-c3cc(OCc4ccc(C#N)cc4OC)ccc3F)c2[nH]c1=O [Example 115, 4-Amino-8-[5-[(4-cyano-2-methoxy-phenyl)methoxy]-2-fluoro-phenyl]-2-oxo-N-propyl-1H-quinoline-3-carboxamide] | 0.34 | 8.70
14 | CCCNC(=O)c1c(N)c2cccc(-c3cc(OCc4ccoc4)ccc3F)c2[nH]c1=O [Example 116, 4-Amino-8-(2-fluoro-5-(furan-3-ylmethoxy)phenyl)-2-oxo-N-propyl-1,2-dihydroquinoline-3-carboxamide] | 0.42 | 8.93
15 | CCCNC(=O)c1c(N)c2cccc(-c3cc(OCc4scnc4C)ccc3F)c2[nH]c1=O [Example 117, 4-Amino-8-[2-fluoro-5-[(4-methylthiazol-5-yl)methoxy]phenyl]-2-oxo-N-propyl-1H-quinoline-3-carboxamide] | 0.23 | 8.80
16 | CCCNC(=O)c1c(N)c2cccc(-c3cc(OCc4nc(C)cs4)ccc3F)c2[nH]c1=O [Example 118, 4-Amino-8-[2-fluoro-5-[(4-methylthiazol-2-yl)methoxy]phenyl]-2-oxo-N-propyl-1H-quinoline-3-carboxamide] | 0.29 | 9.30
17 | CCCNC(=O)c1c(N)c2cccc(-c3cc(OCc4cscn4)ccc3F)c2[nH]c1=O [Example 119, 4-Amino-8-(2-fluoro-5-(thiazol-4-ylmethoxy)phenyl)-2-oxo-N-propyl-1,2-dihydroquinoline-3-carboxamide] | 0.38 | 9.51
18 | CCCNC(=O)c1c(N)c2cccc(-c3cc(OCc4coc(C(C)C)n4)ccc3F)c2[nH]c1=O [Example 123, 4-Amino-8-[2-fluoro-5-[(2-isopropyloxazol-4-yl)methoxy]phenyl]-2-oxo-N-propyl-1H-quinoline-3-carboxamide] | 0.2549 | 8.77
19 | CCCNC(=O)c1c(N)c2cccc(-c3cc(OCc4cncn4C)ccc3F)c2[nH]c1=O [Example 125, 4-Amino-8-(2-fluoro-5-((1-methyl-1H-imidazol-5-yl)methoxy)phenyl)-2-oxo-N-propyl-1,2-dihydroquinoline-3-carboxamide] | 0.22 | 9.43
20 | CCCNC(=O)c1c(N)c2cccc(-c3cc(OCc4cn(C)cn4)ccc3F)c2[nH]c1=O [Example 126, hydrochloride] | 0.27 | 8.92
21 | CCCNC(=O)c1c(N)c2cccc(-c3cc(OCc4cc[nH]n4)ccc3F)c2[nH]c1=O [Example 127, 4-Amino-8-[2-fluoro-5-(1H-pyrazol-3-ylmethoxy)phenyl]-2-oxo-N-propyl-1H-quinoline-3-carboxamide] | 0.24 | 9.11
22 | CCCNC(=O)c1c(N)c2cccc(-c3cc(OCc4ccn(C)n4)ccc3F)c2[nH]c1=O [Example 128, 4-Amino-8-[2-fluoro-5-[(1-methylpyrazol-3-yl)methoxy]phenyl]-2-oxo-N-propyl-1H-quinoline-3-carboxamide] | 0.24 | 8.97
23 | CCCNC(=O)c1c(N)c2cccc(-c3cc(OCc4cn(C)nn4)ccc3F)c2[nH]c1=O [Example 129, 4-Amino-8-[2-fluoro-5-[(1-methyltriazol-4-yl)methoxy]phenyl]-2-oxo-N-propyl-1H-quinoline-3-carboxamide] | 0.25 | 9.19
24 | CCCNC(=O)c1c(N)c2cccc(-c3cc(OCc4noc(C)n4)ccc3F)c2[nH]c1=O [Example 130, 4-Amino-8-[2-fluoro-5-[(5-methyl-1,2,4-oxadiazol-3-yl)methoxy]phenyl]-2-oxo-N-propyl-1H-quinoline-3-carboxamide] | 0.18 | 9.19
25 | CCCNC(=O)c1c(N)c2cccc(-c3cc(OCc4nnc(C)o4)ccc3F)c2[nH]c1=O [Example 131, 4-Amino-8-(2-fluoro-5-((5-methyl-1,3,4-oxadiazol-2-yl)methoxy)phenyl)-2-oxo-N-propyl-1,2-dihydroquinoline-3-carboxamide] | 0.40 | 9.52
26 | CCCNC(=O)c1c(N)c2cccc(-c3cc(OCc4ccc5[nH]cnc5c4)ccc3F)c2[nH]c1=O [Example 133, 8-(5-((1H-Benzo[d]imidazol-5-yl)methoxy)-2-fluorophenyl)-4-amino-2-oxo-N-propyl-1,2-dihydroquinoline-3-carboxamide] | 0.23 | 8.89
27 | CCCNC(=O)c1c(N)c2cccc(-c3cc(OCCn4cnnc4)ccc3F)c2[nH]c1=O [Example 134, 4-Amino-8-[2-fluoro-5-[2-(1,2,4-triazol-4-yl)ethoxy]phenyl]-2-oxo-N-propyl-1H-quinoline-3-carboxamide] | 0.04 | 9.77
28 | CCCNC(=O)c1c(N)c2cccc(-c3cc(OCC4CCOCC4)ccc3F)c2[nH]c1=O [Example 135, 4-Amino-8-[2-fluoro-5-(tetrahydropyran-4-ylmethoxy)phenyl]-2-oxo-N-propyl-1H-quinoline-3-carboxamide] | 0.20 | 9.15
29 | CCCNC(=O)c1c(N)c2cccc(-c3cc(OCC4COC4)ccc3F)c2[nH]c1=O [Example 136, 4-Amino-8-[2-fluoro-5-(oxetan-3-ylmethoxy)phenyl]-2-oxo-N-propyl-1H-quinoline-3-carboxamide] | 0.24 | 9.05
